Patent publication US7781644B2, “Arabidosis AtLEJ1 gene involved in inhibiting biosynthesis of jasmonic acid and ethylene and method for producing male-sterile plant using the same” (Korea University Industry and Academy Cooperation Foundation, priority 2006, dated 2010)

Columns and labels:
[1] = system: male-sterile AtLEJ1-overexpressed plant; test: Restoration of male-sterile AtLEJ1-overexpressed plant to fertile phenotype by hormone treatment of flower bud cluster; format: in vivo, Arabidopsis
Procedure: First, a flower bud cluster of the AtLEJ1-overexpressed plant was treated with 500 μM jasmonic acid. For a negative control, non-treatment or water alone, was provided.
(§1) The flowers obtained day 2 after treatment with jasmonic acid were embedded in paraffin (Paraplast) and then stained with phloroglucinol for microscopic observation.

[2] = system: endothecium cells of stamens of the AtLEJ1-overexpressed plant; test: Phloroglucinol staining of paraffin sections for lignification of endothecium cells of stamens after hormone treatment; format: in vivo, Arabidopsis
From the text: In order to examine the developmental process of anthers at the cell level, flowers of the wild-type and the AtLEJ1-overexpressed plant were dipped in a fixing solution, dehydrated with a series of ethanol solutions, and embedded in paraffin (Paraplast), followed by microtome section at 8 μm. The sections were stained with 2% phloroglucinol to visualize the lignification of the endothecium cells, known to play an important role in anther dehiscence, and were washed with 9N HCl.
as §1

| SMILES | restoration to a fertile phenotype ([1]; treatment with 50 mM ACC (FIG. 12)) | restoration to a fertile phenotype ([1]; treatment with 500 mM ACC (FIG. 12)) | lignification of endothecium cells of stamens ([2]; ACC-treated plant, 50 mM or 500 mM (FIG. 13)) | restoration to a fertile phenotype ([1]; 500 μM jasmonic acid on flower bud cluster, one week after treatment, control remained sterile (FIG. 10)) | anther dehiscence (microscopic observation of treated flowers) ([1]; 500 μM jasmonic acid, day 2 after treatment) | lignification of endothecium cells of stamens (phloroglucinol staining) ([2]; 500 μM jasmonic acid, flowers obtained day 2 after treatment (FIG. 11)) |
| --- | --- | --- | --- | --- | --- | --- |
| NC1(C(=O)O)CC1 [ACC, 1-aminocyclopropane-1-carboxylic acid] | restored to a fertile phenotype | restored to a fertile phenotype | Lignification was also found | – | – | – |
| CC/C=C\C[C@H]1C(=O)CC[C@@H]1CC(=O)O [jasmonic acid] | – | – | – | at least partly, restored to a fertile phenotype | observed to enter anther dehiscence | lignified |
